Columns and labels:
Format in all cases: functional
[1] = system: Plasmodiophora brassicae; experiment: Fungicidal activity against clubroot disease causing Plasmodiophora brassicae infested Brassica campestris under greenhouse condition assessed as disease incidence at 2 kg a.i/ha treated to soil measured after 40 to 50 days
[2] = system: Plasmodiophora brassicae; experiment: Fungicidal activity against clubroot disease causing Plasmodiophora brassicae infested Brassica campestris under greenhouse condition assessed as disease incidence at 4 kg a.i/ha treated to soil measured after 40 to 50 days
[3] = system: Plasmodiophora brassicae; experiment: Fungicidal activity against clubroot disease causing Plasmodiophora brassicae infested Brassica campestris under greenhouse condition assessed as disease incidence at 0.5 kg a.i/ha treated to soil measured after 40 to 50 days

Row | Compound | Activity [1] | Activity [2] | Activity [3]
1 | O=[N+]([O-])c1ccc(NS(=O)(=O)c2ccccc2)c(Cl)c1 | 0% | >91% | –
2 | Cc1ccc(S(=O)(=O)Nc2ccc(F)cc2)cc1 | – | 0% | –
3 | O=[N+]([O-])c1ccc(NS(=O)(=O)c2ccccc2[N+](=O)[O-])cc1 | 0% | 51% | –
4 | O=[N+]([O-])c1ccc(NS(=O)(=O)c2ccc([N+](=O)[O-])cc2)cc1 | 0% | 0% | –
5 | O=[N+]([O-])c1ccc(S(=O)(=O)Nc2ccc([N+](=O)[O-])cc2Cl)cc1 | 0% | 0% | –
6 | Cc1ccc(S(=O)(=O)Nc2ccc([N+](=O)[O-])cc2Cl)cc1 | >91% | >91% | 26%
7 | O=[N+]([O-])c1cccc(S(=O)(=O)Nc2ccc([N+](=O)[O-])cc2Cl)c1 | 26% | 71% | –
8 | Cc1ccc(S(=O)(=O)Nc2c(C)cccc2[N+](=O)[O-])cc1[N+](=O)[O-] | 0% | 26% | –
9 | Cc1ccc([N+](=O)[O-])cc1NS(=O)(=O)c1ccc(Cl)c([N+](=O)[O-])c1 | – | 0% | –
10 | COc1ccc([N+](=O)[O-])cc1NS(=O)(=O)c1ccccc1[N+](=O)[O-] | – | 0% | –
11 | COc1ccc([N+](=O)[O-])cc1NS(=O)(=O)c1ccc([N+](=O)[O-])cc1 | – | 0% | –
12 | Cc1ccc(S(=O)(=O)Nc2ccc(Br)cc2)cc1 | – | 0% | –
13 | Cc1cc([N+](=O)[O-])ccc1NS(=O)(=O)c1ccc(Cl)c(Cl)c1 | >91% | >91% | 0%
14 | Cc1ccc(S(=O)(=O)Nc2ccc([N+](=O)[O-])cc2C)c(C)c1 | 0% | 0% | –
15 | Cc1cc([N+](=O)[O-])ccc1NS(=O)(=O)c1ccc(Cl)c(C(F)(F)F)c1 | >91% | >91% | 26%
16 | O=[N+]([O-])c1ccc(NS(=O)(=O)c2cccc(C(F)(F)F)c2)c(F)c1 | >91% | >91% | >91%
17 | O=[N+]([O-])c1ccc(NS(=O)(=O)c2cc(Cl)c(Cl)cc2Cl)c(F)c1 | >91% | >91% | 71%
18 | O=[N+]([O-])c1ccc(NS(=O)(=O)c2ccc(Cl)cc2)c(Cl)c1 | >91% | >91% | –
19 | O=[N+]([O-])c1ccc(NS(=O)(=O)c2cccc(C(F)(F)F)c2)c(Cl)c1 | >91% | >91% | >91%
20 | N#Cc1cccc(S(=O)(=O)Nc2ccc([N+](=O)[O-])cc2Cl)c1 | 0% | 0% | –
21 | Cc1ccc([N+](=O)[O-])cc1S(=O)(=O)Nc1ccc([N+](=O)[O-])cc1Cl | >91% | >91% | 0%
22 | Cc1ccc(C)c(S(=O)(=O)Nc2ccc([N+](=O)[O-])cc2Cl)c1 | >91% | >91% | 0%
23 | Cc1ccc(S(=O)(=O)Nc2ccc([N+](=O)[O-])cc2Cl)c(C)c1 | >91% | >91% | 0%
24 | O=[N+]([O-])c1ccc(NS(=O)(=O)c2cc(C(F)(F)F)ccc2Cl)c(Cl)c1 | >91% | >91% | 51%
25 | O=[N+]([O-])c1ccc(NS(=O)(=O)c2ccc(Cl)c(Cl)c2)c(Cl)c1 | 26% | >91% | –

Row | Compound | Activity [1] | Activity [2] | Activity [3]
26 | O=[N+]([O-])c1ccc(NS(=O)(=O)c2cc(Cl)ccc2Cl)c(Cl)c1 | >91% | >91% | 26%
27 | Cc1ccc(S(=O)(=O)Nc2ccc([N+](=O)[O-])cc2Cl)cc1[N+](=O)[O-] | >91% | >91% | 26%
28 | O=[N+]([O-])c1ccc(NS(=O)(=O)c2cc(Cl)c(Cl)cc2Cl)c(Cl)c1 | >91% | >91% | 51%
29 | O=[N+]([O-])c1cc(Cl)c(NS(=O)(=O)c2ccccc2)c(Cl)c1 | 0% | >91% | –
30 | Cc1ccc([N+](=O)[O-])cc1S(=O)(=O)Nc1c(Cl)cc([N+](=O)[O-])cc1Cl | >91% | >91% | 26%
31 | Cc1ccc(S(=O)(=O)Nc2ccc([N+](=O)[O-])cc2)cc1[N+](=O)[O-] | 0% | 26% | –
32 | Cc1cc([N+](=O)[O-])ccc1NS(=O)(=O)c1ccc(C)c([N+](=O)[O-])c1 | 0% | 0% | –
33 | Cc1cc([N+](=O)[O-])ccc1NS(=O)(=O)c1ccc([N+](=O)[O-])cc1 | 0% | 0% | –
34 | Cc1cc([N+](=O)[O-])ccc1NS(=O)(=O)c1cccc(C#N)c1 | 0% | 0% | –
35 | Cc1cc([N+](=O)[O-])ccc1NS(=O)(=O)c1ccc(Cl)cc1 | 0% | >91% | –
36 | Cc1ccc(S(=O)(=O)Nc2ccc([N+](=O)[O-])cc2C)cc1 | 0% | 0% | –
37 | Cc1ccc(C)c(S(=O)(=O)Nc2ccc([N+](=O)[O-])cc2C)c1 | 26% | >91% | –
38 | O=S(=O)(Nc1ccc(C(F)(F)F)cc1)c1cccc(C(F)(F)F)c1 | – | 0% | –
39 | O=S(=O)(Nc1ccc(C(F)(F)F)cc1)c1ccc(Cl)c(Cl)c1 | 26% | >91% | 0%
40 | N#Cc1cccc(S(=O)(=O)Nc2ccc(C(F)(F)F)cc2)c1 | 0% | 26% | –
41 | N#Cc1cccc(S(=O)(=O)Nc2ccc(Cl)cc2Cl)c1 | – | 0% | –
42 | O=S(=O)(Nc1ccccc1Cl)c1cc(C(F)(F)F)ccc1Cl | – | 0% | –
43 | O=S(=O)(Nc1ccc(C(F)(F)F)cc1Cl)c1cccc(C(F)(F)F)c1 | >91% | >91% | >91%
44 | O=S(=O)(Nc1ccc(C(F)(F)F)cc1Cl)c1cc(C(F)(F)F)ccc1Cl | >91% | >91% | >91%
45 | O=S(=O)(Nc1ccc(C(F)(F)F)cc1Cl)c1ccc(Cl)c(Cl)c1 | >91% | >91% | 51%
46 | O=S(=O)(Nc1ccc(C(F)(F)F)cc1Cl)c1ccc(Cl)c(C(F)(F)F)c1 | >91% | >91% | 26%
47 | O=S(=O)(Nc1ccc(C(F)(F)F)cc1Cl)c1ccc(Cl)cc1 | >91% | >91% | 26%
48 | Cc1ccc(S(=O)(=O)Nc2ccc(C(F)(F)F)cc2Cl)cc1 | 0% | 51% | –
49 | N#Cc1cccc(S(=O)(=O)Nc2ccc(C(F)(F)F)cc2Cl)c1 | 0% | 51% | –
50 | O=S(=O)(Nc1cc(C(F)(F)F)ccc1Cl)c1cccc(C(F)(F)F)c1 | >91% | >91% | 0%

Row | Compound | Activity [1] | Activity [2] | Activity [3]
51 | N#Cc1ccc(NS(=O)(=O)c2cccc(C(F)(F)F)c2)cc1 | – | 0% | –
52 | N#Cc1ccc(NS(=O)(=O)c2ccc(Cl)c(Cl)c2)cc1 | – | 0% | –
53 | N#Cc1ccc(NS(=O)(=O)c2cccc(C(F)(F)F)c2)c(Cl)c1 | 51% | >91% | 0%
54 | COC(=O)c1ccc(NS(=O)(=O)c2cccc(C(F)(F)F)c2)cc1 | – | 0% | –
55 | CCOC(=O)c1ccc(NS(=O)(=O)c2cccc(C(F)(F)F)c2)cc1 | 0% | 0% | –
56 | CCCOC(=O)c1ccc(NS(=O)(=O)c2cccc(C(F)(F)F)c2)cc1 | 0% | 0% | –
57 | CCOC(=O)c1ccc(NS(=O)(=O)c2ccc(Cl)cc2)c(Cl)c1 | – | 0% | –
58 | COC(=O)c1ccc(NS(=O)(=O)c2ccc(Cl)c(C(F)(F)F)c2)c(Cl)c1 | – | 0% | –
59 | COC(=O)c1ccc(NS(=O)(=O)c2ccc(Cl)c(Cl)c2)c(Cl)c1 | – | 0% | –
60 | CN(C)C(=O)c1ccc(NS(=O)(=O)c2cccc(C(F)(F)F)c2)cc1 | – | 0% | –
61 | CN(C)C(=O)c1ccc(NS(=O)(=O)c2cccc(C(F)(F)F)c2)c(Cl)c1 | – | 0% | –
62 | CN(C)C(=O)c1ccc(NS(=O)(=O)c2ccc(Cl)c(Cl)c2)c(Cl)c1 | – | 0% | –
63 | O=[N+]([O-])c1cc(Cl)c(NS(=O)(=O)c2ccc(Cl)cc2)c(Cl)c1 | >91% | >91% | 0%
64 | Cc1ccc(NS(=O)(=O)c2ccc(C)c([N+](=O)[O-])c2)c([N+](=O)[O-])c1 | – | 0% | –
65 | Cc1ccc(NS(=O)(=O)c2ccc([N+](=O)[O-])cc2)c([N+](=O)[O-])c1 | – | 0% | –
66 | Cc1ccc(S(=O)(=O)Nc2cccc([N+](=O)[O-])c2)cc1[N+](=O)[O-] | – | 0% | –
67 | O=[N+]([O-])c1cccc(NS(=O)(=O)c2ccccc2[N+](=O)[O-])c1 | – | 0% | –
68 | O=[N+]([O-])c1cccc(NS(=O)(=O)c2cccc([N+](=O)[O-])c2)c1 | – | 0% | –
69 | Cc1ccc(S(=O)(=O)Nc2cc([N+](=O)[O-])ccc2Cl)cc1[N+](=O)[O-] | 0% | 26% | –
70 | Cc1ccc(S(=O)(=O)Nc2ccc(F)c([N+](=O)[O-])c2)cc1[N+](=O)[O-] | 26% | 51% | –
71 | Cc1ccc([N+](=O)[O-])cc1NS(=O)(=O)c1ccc(C)c([N+](=O)[O-])c1 | – | 0% | –
72 | COc1ccc([N+](=O)[O-])cc1NS(=O)(=O)c1cccc([N+](=O)[O-])c1 | – | 0% | –
73 | Cc1ccc([N+](=O)[O-])cc1NS(=O)(=O)c1ccc([N+](=O)[O-])cc1 | – | 0% | –
74 | Cc1cc([N+](=O)[O-])ccc1NS(=O)(=O)c1cc(Cl)ccc1Cl | >91% | >91% | 51%
75 | O=[N+]([O-])c1ccc(S(=O)(=O)Nc2cccc([N+](=O)[O-])c2)cc1 | – | 0% | –
